Results as given in a melting point compilation (Tetko et al.; mined from patent text by program, amines drawn as free bases though some values may be those of a salt).

SMILES	melting point [°C]
CCOC(=O)C(=O)Nc1cc2[nH]c(=O)c(=O)n(C3CCCCC3)c2cc1[N+](=O)[O-]	260
Cc1ccccc1-n1c(C=Cc2ccccn2)nc2ccsc2c1=O	203
COC(=O)c1nc(-c2ccc(C)c(C)c2)cc(N)c1Cl	154 to 156
COc1ccc2cc(CC(O)C(C)=O)ccc2c1 (centres undefined)	107 to 110
CCCOc1c(C=O)c(=O)n(C)c(=O)n1C	57 to 58
O=C(c1ccccc1)N1Cc2[nH]c3ccccc3c(=O)c2C1	275
COC(=O)N(C(=O)CC(O)(Cn1cncn1)c1ccc(Cl)cc1Cl)C(=O)OC (centres undefined)	155 to 156
Nc1cc(=O)n(Cc2ccccc2C(F)(F)F)[nH]1	184
COc1cc2ncc(OC3CCCCC3)nc2cc1OC1CCCCC1	75 to 78
COc1cc(-n2nc(C(F)(F)F)cc2C(F)(F)F)ccc1NC(=O)c1snnc1C	119 to 121
COc1cnc(C(O)Cc2c(Cl)cncc2Cl)cc1OC1CCCC1 (centres undefined)	110 to 112
COc1ccc(CCN(C)C(C)(C)CO)cc1	40
CCOc1cccc(C)c1N(C(=O)n1nc(OCC)n(C)c1=O)S(N)(=O)=O	147
O=C1c2cc3nnn(CCC4CCCCC4)c(=O)c3cc2OC2CCCN12 (centres undefined)	170
CNc1nc(CO)ccc1C	87
COC(=O)CCCc1cc2nc(Cl)ccc2n1S(=O)(=O)c1ccc(F)cc1	119
COC(=O)c1ccc(-c2nc(-c3ccccc3)n(C)n2)cc1	167 to 168
COc1nc(N)nc(-c2ccccc2)n1	159 to 160
N#CC=C1CCN(c2ccc(N3C[C@H](CNC(=O)C(Cl)Cl)OC3=O)cc2F)CC1	159 to 161
Cc1nn(C)c(F)c1C(=O)F	85 to 87
COC(=O)NC1CCc2c(ccc(OC)c2OC)C1 (centres undefined)	109 to 111
COc1cc(C(OC)OC)cc([N+](=O)[O-])c1O	58 to 59
O=C(NCCBr)Oc1ccccc1	57 to 60
Cc1cc(Cl)cc(C(=O)CC(=O)C2CCCCC2)c1O	76 to 77
COc1ccc(C(CCN(C)C)c2ncc[nH]2)cc1 (centres undefined)	131 to 133
CC(C)(C)C1Cc2cc([N+](=O)[O-])ccc2N1 (centres undefined)	110 to 112

SMILES	melting point [°C]
CC(C)C[C@@H]1NC(=O)O[C@H]1CCOS(C)(=O)=O	99 to 100
O=C(NC1(COc2ccc(Br)cc2)COC1)OCc1ccccc1	101 to 103
C(=Cc1ccc(-c2cc3c(ccc4oc5ccccc5c43)o2)cc1)c1ccccc1	239 to 241
N#Cc1cnc2c(c1Cl)C=C1N=CN=C1C2	> 300
CCOC(=O)c1cccn2cc(C(C)(C)C)nc12	72 to 74
O=C(O)c1cnc(Cl)nc1-c1ccccc1	105 to 110
COc1cc(N)c(Cl)cc1C(=O)NCC1CCN(CCCCCNC(=O)c2cccc(Cl)c2)CC1	139 to 142
O=C(O)Cc1cc(C=Cc2ccccc2)ccc1O	202
CC1CCC(=O)N1CC(=O)NCCN(C(C)C)C(C)C (centres undefined)	73 to 74
CS(=O)(=O)c1ccc(C(=O)Nc2ccc(Cl)c(-c3ccc(C(=O)NO)cn3)c2)c(Cl)c1	190 to 193
COc1ccc(C(NCc2cccc(F)c2)c2cccc(Nc3c(N)c(=O)c3=O)c2)cc1 (centres undefined)	209 to 212
O=C1NC(=Cc2ccccc2Cl)C(=O)C1=NO	176
O=C1CCCc2ccc(=O)[nH]c21	253
S=C1N=c2ccc(OCCN3CCC(Cc4ccccc4)CC3)cc2=N1	273 to 275
COC(=O)Cc1ccc(OCCNC(=O)OCc2ccccc2)c(F)c1	44 to 45
Cc1ccc2onc(O)c2c1	95 to 97
c1ccc2cc(OC3CCC4(CCNCC4)CC3)ccc2c1	132 to 134
COc1ccc(C(=O)Nc2ccc(F)cc2)cc1N	164 to 167
Cc1cc(C)cc(Sc2c(C)c[nH]c(=O)c2N)c1	208 to 210
CN(C)C1Cc2cccc3[nH]c(=O)n(c23)C1 (centres undefined)	220 to 223
O=C(CCc1oc(-n2ccnc2)nc1-c1ccc(Cl)cc1)NCCCl	130 to 131
NCC#Cc1ccc(Cl)cc1C(=O)c1ccccc1Cl	81 to 89
CC(c1oc2ccccc2c(=O)c1-c1cccc(F)c1)n1nc(-c2ccc(F)nc2)c2c(N)ncnc21 (centres undefined)	203 to 206
CCN(CC)C(=O)c1ccc(OCOC)cc1-c1ccccc1	63 to 64
Cc1ccc(C(=O)NN(C(=O)c2cc(Cl)sc2Cl)C(C)(C)C)cc1	163 to 165
COC(=O)c1c(O)c2ccccc2n1-c1ccc(OC)cc1	153 to 155

SMILES	melting point [°C]
O=C(CNc1ccc(Cl)cc1)NCCc1ccc(OCc2ccccc2)c(OCc2ccccc2)c1	121
COC(=O)[C@H](O)CCCc1ccc(OCc2nc(-c3ccco3)oc2C)c(OC)c1	80 to 81
ICC1COc2ccccc2O1 (centres undefined)	38 to 40
O=C(NCCO)/C(=C/c1ccc(OC(F)(F)F)cc1)NC(=O)c1ccc(Oc2ccc(C(F)(F)F)cc2)cc1	84 to 86
CN(C)NC(=O)C(C)(C)C	120 to 122
Cc1nc(C)c(-c2ccc(C#N)cc2)s1	108 to 110
CCCCCCCCCCCCCCCCCCOCCO	39 to 41
CC(C)C(=O)NC1CCc2c(c3cc(-c4ccccn4)ccc3n2Cc2cccc(F)c2)C1 (centres undefined)	228 to 230
CNC(=O)C(=NOC)c1c(F)cccc1COc1ccccc1C	93
CN1CC=C(c2c[nH]c3ccc(Oc4ccccn4)cc23)CC1	240 to 245
O=C(NCCNCc1cc2cc(O)ccc2o1)C12CC3CC(CC(C3)C1)C2	140 to 143
CCN(CC)CC=CC(=O)Nc1ccc2ncnc(Nc3cccc(Br)c3)c2c1	196 to 199
CCCCCCCCc1ccc(OCC(=O)Cn2cccn2)cc1	85 to 87
O=C(O)COc1ccc2c(=O)c3c(Cl)cccc3oc2c1Cl	270 to 271
O=C(c1ccccc1C(c1ccc(O)cc1)c1ccc(O)cc1)N(C1CCCCC1)C1CCCCC1	> 300
Cc1ccc(NC(=O)N2CCN(CCc3ccc(-c4cccc(N)n4)cc3)CC2)cc1	160 to 162
O=C(O)CCN(C1(C(=O)NO)CCCC1)S(=O)(=O)c1ccc(-c2ccc(F)cc2)cc1	163 to 164
CCOC(OCC)c1nc(N)nc(N)c1-c1ccc(Cl)cc1Cl	225
CC(Br)C(=O)c1ccc(CN2C(=O)c3ccccc3C2=O)s1 (centres undefined)	127 to 130
OC(Cn1cncn1)(c1ccc(F)cc1)C(F)(F)c1ccc(F)cc1 (centres undefined)	128 to 130
COc1ccc(S(=O)(=O)Nc2cccnc2Nc2ccc(OC(=O)N(C)C)cc2)cc1	202 to 203
Cn1ncc(NCCCN2CCC(c3noc4cc(F)ccc34)CC2)c(Cl)c1=O	200 to 202
CC(=O)OCC1=C(c2ccccc2)C(=O)N(C(C)(C)C(=O)Nc2cccc(C(F)(F)F)c2)CO1	76.5 to 77.5
Cc1[nH]c(=O)ccc1C(=O)c1ccc(O)cc1	280 to 282
CC(C)(C)C1OC1C(O)c1ccc(C(F)(F)F)cc1 (centres undefined)	74 to 75
C=Cc1cc(CC(=O)O)ccc1OCc1ccc2ccccc2n1	173

SMILES	melting point [°C]
CCOC(=O)c1cn(CCc2ccccc2)nc1N	76.9 to 78.6
Cc1cc(F)ccc1-c1nc(N[C@H]2CC[C@H](O)CC2)nc2c1ccc(=O)n2-c1c(F)cccc1F	158 to 160
CC(C)(C)OOC(C)(C)c1ccc(C(C)(C)OOC(C)(C)C)cc1	76 to 77
CC(=O)OC1CC2CCC3C(CCC4(C)C(C(C)=O)CCC34)C2(C)CC1Br (centres undefined)	142 to 146
CCOC(=O)c1cnn(-c2cc(C(=O)Nc3cc(C(C)(C)C)cc(NS(C)(=O)=O)c3OC)ccc2C)c1	125 to 130
Brc1ccc(-c2ccc(I)cc2)cc1	177 to 179
CN1C(=O)C2(CCN(CC(O)C3COc4ccccc4O3)CC2)c2ccccc21 (centres undefined)	113 to 128
O=[N+]([O-])c1cccc(NC(=S)NCc2cccnc2)c1	159
O=C(C=Cc1cccc(O)c1)C=Cc1cccc(O)c1	190 to 195
CCOC(=O)c1c(C2CC2)nn(CC)c1Cc1ccc(-c2ccccc2-c2nnn[nH]2)cc1	73 to 77
CC(C)C(c1ccc2[nH]c(=O)c(C(=O)O)nc2c1)n1ccnc1 (centres undefined)	238
COC(=O)c1ccc2c(c1)OCCO2	43 to 45
C[C@H](N)Cn1ncc2ccc3oc(C(=O)NCCCN4CCCC4=O)cc3c21	82
CC1(C)CCc2c(ccc3c2C(=O)C(Cl)=C(Cl)C3=O)O1	158 to 160
CCCOC(=O)c1cccc(CCN(C)CCCC(C#N)(c2ccc(OC)c(OC)c2)C(C)C)c1 (centres undefined)	110 to 114
O=C1N(Cc2ccc(Cl)s2)c2ccccc2C12COc1cc3c(cc12)OCO3 (centres undefined)	145 to 146
COc1ccc(CN2CCC(c3cn(Cc4ccoc4)c4ncccc34)CC2)cc1C(=O)O	230 to 232
O=C1Nc2c(F)cc(F)cc2C1=O	188 to 194
O=C(O)C=Cc1cccc(Sc2c[nH]c3ccccc23)c1	165 to 167
COCC(=O)Nc1cc(C#N)cc(NC(=O)COC)c1Cl	173 to 174
COCc1nnc(-c2cccnc2)n1-c1c(Cl)c(Cl)cc2[nH]c(=O)c(=O)[nH]c12	222 to 224
Cc1c(N2CC(COC(=O)C(C)C)C(COC(=O)C(C)C)C2)c(F)cc2c(=O)c(C(=O)O)cn(C3CC3)c12 (centres undefined)	141 to 143
O=[N+]([O-])c1cc(C(F)(F)F)cc2c1nc(C(F)(F)F)n2S(=O)(=O)c1ccccc1	183 to 185
CCCC[C@H]1CC[C@H](c2ccc(OC(=O)[C@H]3CC[C@H](CCC)C3)cc2)CC1 (relative stereo)	90
CC(C)(C)OC(=O)[C@H]1C[C@@H](S(=O)(=O)c2ccccc2)[C@@H](c2ccccc2)N1C(=O)CNC(=O)Nc1cccc(C(=O)OCc2ccccc2)c1 (racemic)	212
CCOC(=O)C(=Cc1ccc(OC)c(O)c1)C(=O)OCC	81 to 83
